Here are results for two molecules from patent publication US8617555B2, “Pharmaceutical compositions comprising activated-potentiated antibodies to human insulin receptor and endothelial nitric oxide (NO) synthase” (priority 2010, dated 2013).

In test [1] the test system is rats with streptozotocin-induced diabetes mellitus. Kind of test: Fasting blood plasma glucose level in rats with streptozotocin-induced diabetes mellitus. The test is classed as in vivo, Wistar rats. The following applies: STZ rats. The protocol: In the study, 150 male Wistar were used (weight at beginning of study 250-300 g, age 3.5-4 months). 10 rats were intact. The rest were intravenously injected with streptozotocin at the dose of 50 mg/kg (experimental model of diabetes mellitus). […] Intact rats received distilled water in the same volume. On days 7, 14 and 21 of injection of preparations in rats, fasting blood plasma glucose level measured with enzymatic method (glucose oxidase method) with utilization of “glucose FKD” kits (Russia).

Test [2] has the same test system. Kind of test: Oral glucose tolerance test (OGTT) on day 14 in rats with streptozotocin-induced diabetes mellitus. The class given is in vivo, Wistar rats. The following applies: STZ rats; day 14 of injection; glucose 1 g/kg per os; administered alone. The protocol: The rats were starving at water for 18 hours. 60 min before the test they were last given test substances. Intact rats received distilled water in the same volume. Glucose was administered per os 50% w/w water glucose solution (1 g/kg of rat weight). Serum glucose of blood sample from tail vein was measured by using “Glucose FKD” kit (OOO “Pharamaceutical and clinical diagnostics, Russia) at 0, 30, 60, 90, 120 min. Mean area under the curve (AUC) concentration of blood glucose over time was calculated.

For `CN(CCOc1ccc(CC2SC(=O)NC2=O)cc1)c1ccccn1` (stereo not drawn) [Rosiglitazone], in test [1] (day 14 of the experiment, p<0.05 versus control), the “decrease in glucose level versus control” value amounted to 36%. Consider “insulin: short-acting insulin, 8 units/kg/day subcutaneously, 1/2 of the effective dose”, for which the “effect on blood plasma glucose level (in words)” value in test [1] (all observation periods, 1/2 of the effective dose, glucose measured 1 hour after injection) was “down to the level of the intact control”. In test [2], the “glucose tolerance, area under concentration-time curve (AUC) in OGTT (in words)” value was “most effectively increased glucose tolerance”.
